Laboratory results: US7723091B2 (priority 1999, dated 2010)
Like-named read-outs stand apart in the source and are kept apart here. Marks after values point to notes of the source that are not given here.

Tests used:
[1] = system: E. acervulina, E. maxima, and C. perfringens; assay type: in vivo, broiler chickens; conditions: Trial III; for Feed Consumption Day 0-21 / Feed Consumption Day 8-21 / Feed Conversion Day 0-21 / Feed Conversion Day 8-21 / Lesion Scores E. acer. / Lesion Scores E. max. / Live Wt. Day 21 / Weight AF/G Treatment (weight adjusted feed conversion) / Weight Gain Day 0-21 / Weight Gain Day 8-21: infected
[2] = system: E. acervulina and Clostridium perfringens; assay type: in vivo, broiler chickens
[3] = system: E. acervulina, E. maxima and Clostridium perfringens; assay type: in vivo, broiler chickens; conditions: Trial IV; infected; PI-PLC 30 U/lb, Man. 121 MU/ton, BMD 50 g/ton, salinomycin 60 g/ton
C. parvum = assay: Anti-cryptosporidial activity in MDCK cell cultures (chemiluminescence immunoassay); assay type: cell-based, Cryptosporidium parvum
Protocol: The enzyme PI-PLC was evaluated for anti-cryptosporidial activity and toxicity at concentrations ranging from 0.001-30 U/ml were performed using 4-day-old Madin-Darby canine kidney (MDCK) cells. Enzyme units were defined as by the method in Example 4 but measured as in Example 9. The preparation of enzyme used was from recombinant Bacillus megaterium. Treatment was initiated 3 hours after infection and continued through 48 hours.
Chemiluminescence Immunoassay. Before infection, oocysts were washed and resuspended in DMEM base with 0.75% sodium taurocholate and incubated for 10 min at 37° C. (You et al., FEMS Microbiol. Letters 136:251-256, 1996; You et al., J. Antimicrobial. Chemother. 41:293-296, 1998). The excystation mixture was diluted with Ultraculture medium, promptly dispensed in plates containing MDCK cells, at 100% confluence, and maintained in Ultraculture medium for 4 days. The inoculum was incubated with the cells for3 h before washing with PBS and replaced with fresh Ultraculture medium with or without test enzyme. Plates were incubated at 37° C., in a 5% CO2 air atmosphere for 48 h. Cultures were washed with PBS and fixed with Bouin's solution.
The fixed plates were washed with TBST buffer (20 mM Tris-HCl (pH 7.5), 150 mM NaCl, 0.05% Tween-20) and blocked with 1% BSA-TBST (TBST buffer containing 1% bovine serum albumin) for 30 min at 25° C. with gentle shaking. Rabbit anti-Cryptosporidium parvum sera (1:200 dilution) was applied to the plates and incubated for 1 hr. After washing with TBST, the samples were sequentially incubated with biotin-labeled goat anti-rabbit IgG and horseradish peroxidase-labeled streptavidin (working dilution, 1:1000, KPL Inc., Gaithersburg, Md.). Enhanced Luminol (4-iodophenol and hydrogen peroxide, Aldrich Chemical Co. Inc., Milwaukee, Wis.) was used as a substrate. The plates were read with an ML3000 Luminometer (Dynatech Lab., Chantilly, Va.) and the relative light units (RLU) were determined. Means of RLU were calculated from 4 replicate wells and all experiments were repeated at least twice.
A second set of experiments were performed to evaluate enzyme specificity. Sporozoites were treated with the enzyme at various concentrations for 45 min and briefly washed. The treated sporozoites were then allowed to infect untreated host cells and develop and reproduce for 48 hours. In a separate experiment, host cells were incubated with the enzyme at various concentrations, washed and infected with untreated sporozoites. As shown below (Table 14), treatment of either sporozoite or host cells with the enzyme results in partial inhibition. A dose dependent inhibition was not observed in this concentration range. This may be due to the short incubation period of the enzyme with host or parasite cells (45 min) or partial or incomplete cleavage of host/parasite receptors. Additionally, other host/parasite receptors are probably involved in infection and account for the growth observed in the host cells.

[4] = PI-PLC 10 U/lb (T5; T7 with mannanase 100 MU/ton)
[5] = PI-PLC 30 U/lb (T6; T8 with mannanase 100 MU/ton; T10 with medication)
[6] = Trial II T4 (Rec), T7 (Wt), infected, 10 U/lb
[7] = Trial II T9, no infection challenge, 90 U/lb
[8] = Host cells treated before infection (washed), 0.01 Unit/ml
[9] = Host cells treated before infection (washed), 0.03 Unit/ml
[10] = Host cells treated before infection (washed), 0.1 Unit/ml
[11] = Host cells treated before infection (washed), 0.3 Unit/ml
[12] = Host cells treated before infection (washed), 1 Unit/ml
[13] = Sporozoite treated before infection (45 min, washed), 0.01 Unit/ml
[14] = Sporozoite treated before infection (45 min, washed), 0.03 Unit/ml
[15] = Sporozoite treated before infection (45 min, washed), 0.1 Unit/ml
[16] = Sporozoite treated before infection (45 min, washed), 0.3 Unit/ml
[17] = Sporozoite treated before infection (45 min, washed), 1 Unit/ml
[18] = enzyme added 3 h post infection, 48 h, 0.01 Unit/mL
[19] = enzyme added 3 h post infection, 48 h, 0.03 Unit/mL
[20] = enzyme added 3 h post infection, 48 h, 0.1 Unit/mL
[21] = enzyme added 3 h post infection, 48 h, 0.3 Unit/mL
[22] = enzyme added 3 h post infection, 48 h, 1 Unit/mL

phosphatidylinositol specific phospholipase C [Recombinant PI-PLC]
improvement in AF/G worsening present in the infected control (T3 v. T1) ([1]; infected birds, mannanase 100 MU per ton, PI-PLC in the feed): 33-41% | Feed Consumption Day 0-21 [1, 4]: 10.456^cd | Feed Consumption Day 8-21 [1, 4]: 8.228^abc | Feed Conversion Day 0-21 [1, 4]: 1.560^bc | Feed Conversion Day 8-21 [1, 4]: 1.591b^c | Lesion Scores E. acer. [1, 4]: 1.34^a | Lesion Scores E. max. [1, 4]: 1.19^bc | Live Wt. Day 21 [1, 4]: 0.635^c | Weight AF/G Treatment (weight adjusted feed conversion) [1, 4]: 1.512 | Weight Gain Day 0-21 [1, 4]: 0.594^c | Weight Gain Day 8-21 [1, 4]: 0.477^b | Feed Consumption Day 0-21 [1, 5]: 10.266^d | Feed Consumption Day 8-21 [1, 5]: 7.982^c | Feed Conversion Day 0-21 [1, 5]: 1.572^b | Feed Conversion Day 8-21 [1, 5]: 1.621^ab | Lesion Scores E. acer. [1, 5]: 1.16^ab | Lesion Scores E. max. [1, 5]: 1.13^cd | Live Wt. Day 21 [1, 5]: 0.638^c | Weight AF/G Treatment (weight adjusted feed conversion) [1, 5]: 1.526 | Weight Gain Day 0-21 [1, 5]: 0.597^c | Weight Gain Day 8-21 [1, 5]: 0.483^b | 8-21 Day Feed Conversion (Corrected) ([2]; Trial II T3, infected, 3 U/lb): 1.702 | 8-21 Day Weight Gain ([2]; Trial II T3, infected, 3 U/lb): 323.24 | Average Intestinal Lesion Score ([2]; Trial II T3, infected, 3 U/lb): 1.120 | 8-21 Day Feed Conversion (Corrected) [2, 6]: 1.732 | 8-21 Day Weight Gain [2, 6]: 324.78 | Average Intestinal Lesion Score [2, 6]: 1.133 | 8-21 Day Feed Conversion (Corrected) ([2]; Trial II T5, infected, 30 U/lb): 1.699 | 8-21 Day Weight Gain ([2]; Trial II T5, infected, 30 U/lb): 320.64 | Average Intestinal Lesion Score ([2]; Trial II T5, infected, 30 U/lb): 0.842 | 8-21 Day Feed Conversion (Corrected) ([2]; Trial II T6, infected, 90 U/lb): 1.739 | 8-21 Day Weight Gain ([2]; Trial II T6, infected, 90 U/lb): 328.29 | Average Intestinal Lesion Score ([2]; Trial II T6, infected, 90 U/lb): 0.808 | 8-21 Day Feed Conversion (Corrected) [2, 7]: 1.650 | 8-21 Day Weight Gain [2, 7]: 338.8 | Average Intestinal Lesion Score [2, 7]: 0.847 | effect of varying concentrations on intestinal lesion score, feed conversion and weight gain ([2]; Trial II, T3-T6 (3-90 U/lb)): dose-dependent effect on lowering the intestinal lesion score and feed conversion (T3-T6) and increasing weight gain | Feed Conversion Day 0-21 [3]: 1.701 | Feed Conversion Day 8-21 [3]: 1.778 | Lesion Score E. acer. Upper [3]: 2.25 | Lesion Score E. max. Middle [3]: 1.50 | Live Weight Day 21 [3]: 0.486 | Weight Gain Day 0-21 [3]: 0.451 | Weight Gain Day 8-21 [3]: 0.347 | Mean Number of Cryptosporidium per microtiter plate well (C. parvum; [8]): 543.85 | Percent Inhibition (C. parvum; [8]): 56.84% | Mean Number of Cryptosporidium per microtiter plate well (C. parvum; [9]): 522.66 | Percent Inhibition (C. parvum; [9]): 58.53% | Mean Number of Cryptosporidium per microtiter plate well (C. parvum; [10]): 455.88 | Percent Inhibition (C. parvum; [10]): 63.82% | Mean Number of Cryptosporidium per microtiter plate well (C. parvum; [11]): 629.24 | Percent Inhibition (C. parvum; [11]): 50.07% | Mean Number of Cryptosporidium per microtiter plate well (C. parvum; [12]): 393.64 | Percent Inhibition (C. parvum; [12]): 68.76% | Mean Number of Cryptosporidium per microtiter plate well (C. parvum; [13]): 542.15 | Percent Inhibition (C. parvum; [13]): 56.98% | Mean Number of Cryptosporidium per microtiter plate well (C. parvum; [14]): 527.59 | Percent Inhibition (C. parvum; [14]): 58.13% | Mean Number of Cryptosporidium per microtiter plate well (C. parvum; [15]): 536.80 | Percent Inhibition (C. parvum; [15]): 57.40% | Mean Number of Cryptosporidium per microtiter plate well (C. parvum; [16]): 433.04 | Percent Inhibition (C. parvum; [16]): 65.64% | Mean Number of Cryptosporidium per microtiter plate well (C. parvum; [17]): 412.40 | Percent Inhibition (C. parvum; [17]): 67.27% | inhibition (C. parvum; at a concentration of 0.1 U/mL (FIG. 1), enzyme added 3 h after infection for 48 hours): Approximately 50% | concentration range with anti-cryptosporidial activity in vitro (C. parvum; enzyme added 3 h after infection for 48 hours): 0.01-1 U/mL | Mean Number of Cryptosporidium per microtiter plate well (C. parvum; [18]): 1167.78 | Percent Inhibition (C. parvum; [18]): 7.33% | Mean Number of Cryptosporidium per microtiter plate well (C. parvum; [19]): 912.15 | Percent Inhibition (C. parvum; [19]): 27.62% | Mean Number of Cryptosporidium per microtiter plate well (C. parvum; [20]): 595.53 | Percent Inhibition (C. parvum; [20]): 52.74% | Mean Number of Cryptosporidium per microtiter plate well (C. parvum; [21]): 286.5 | Percent Inhibition (C. parvum; [21]): 77.26% | Mean Number of Cryptosporidium per microtiter plate well (C. parvum; [22]): 285.28 | Percent Inhibition (C. parvum; [22]): 77.36%
